Source: patent US20260285850A1, “SUBSTITUTED OXAZOLIDINONES AND IMIDAZOLINONES AS HERBICIDES” (FMC CORPORATION, priority 2023, published 2026)

Assays:
Type in all cases: in vivo
[1] = test system: horseweed (Erigeron canadensis); experiment: Test A postemergence application, visual injury rating 0-100
How it was run: (§1)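 Scale 0–100 (no effect to complete control), visual, versus untreated controls, read 10 days after application. Application: preemergence directed spray onto seeded loam–sand soil, or postemergence to young plants; formulation in non-phytotoxic solvent with surfactant.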

soybean (Glycine max) [2] = experiment: as above
How it was run: as §1

[3] = test system: galium (catchweed bedstraw, Galium aparine); experiment: as above
How it was run: as §1

kochia (Bassia scoparia) [4] = experiment: as above
How it was run: as §1

[5] = test system: barnyardgrass (Echinochloa crus-galli); experiment: as above
How it was run: as §1

[6] = test system: blackgrass (Alopecurus myosuroides); experiment: as above
How it was run: as §1

[7] = test system: ragweed (common ragweed, Ambrosia artemisiifolia); experiment: as above
How it was run: as §1

[8] = test system: wheat (Triticum aestivum); experiment: as above
How it was run: as §1

[9] = test system: ryegrass, Italian (italian ryegrass, Lolium multiflorum); experiment: as above
How it was run: as §1

corn (Zea mays) [10] = experiment: as above
How it was run: as §1

[11] = test system: oat, wild (wild oat, Avena fatua); experiment: as above
How it was run: as §1

[12] = test system: palmer (palmer amaranth, palmer pigweed, Amaranthus palmeri); experiment: as above
How it was run: as §1

[13] = test system: green foxtail (Setaria viridis); experiment: as above
How it was run: as §1

soybean (Glycine max) [14] = experiment: Test A preemergence soil spray, visual injury rating 0-100; conditions: 10 days
How it was run: as §1

kochia (Bassia scoparia) [15] = experiment: as above; conditions: 10 days
How it was run: as §1

[16] = test system: barnyardgrass (Echinochloa crus-galli); experiment: as above; conditions: 10 days
How it was run: as §1

[17] = test system: blackgrass (Alopecurus myosuroides); experiment: as above; conditions: 10 days
How it was run: as §1

[18] = test system: ragweed (common ragweed, Ambrosia artemisiifolia); experiment: as above; conditions: 10 days
How it was run: as §1

[19] = test system: wheat (Triticum aestivum); experiment: as above; conditions: 10 days
How it was run: as §1

[20] = test system: ryegrass, Italian (italian ryegrass, Lolium multiflorum); experiment: as above; conditions: 10 days
How it was run: as §1

corn (Zea mays) [21] = experiment: as above; conditions: 10 days
How it was run: as §1

[22] = test system: oat, wild (wild oat, Avena fatua); experiment: as above; conditions: 10 days
How it was run: as §1

[23] = test system: palmer (palmer amaranth, palmer pigweed, Amaranthus palmeri); experiment: as above; conditions: 10 days
How it was run: as §1

[24] = test system: green foxtail (Setaria viridis); experiment: as above; conditions: 10 days
How it was run: as §1

[25] = test system: barnyardgrass (Echinochloa crusgalli); experiment: Test B flooded paddy test, visual plant response rating 0-100; conditions: 250 g ai/ha, Flood, applied to paddy water, evaluated after 13 days
How it was run: (§2)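 Greenhouse, 13 d. Seedlings at 2-leaf stage, pots flooded to 3 cm, compound delivered into floodwater, water level held constant. Evaluated visually relative to controls.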

rice (Oryza sativa) = experiment: as above; conditions: 250 g ai/ha, Flood, applied to paddy water, evaluated after 13 days
How it was run: as §2

[26] = test system: ducksalad (Heteranthera limosa); experiment: as above; conditions: 250 g ai/ha, Flood, applied to paddy water, evaluated after 13 days
How it was run: as §2

[27] = test system: sedge, umbrella (small-flower umbrella sedge, Cyperus difformis); experiment: as above; conditions: 250 g ai/ha, Flood, applied to paddy water, evaluated after 13 days
How it was run: as §2

[28] = 62 g ai/ha, postemergence, 10 days, 0 = no effect, 100 = complete control
[29] = Postemergence, 16 g ai/ha, greenhouse 10 days, 0 no effect, 100 complete control
[30] = 62 g ai/ha, 0 = no effect, 100 = complete control

CC(C)OC(=O)C1=CCC(NC(=O)C2(C)CN(c3cc(F)cc(F)c3)C(=O)O2)C1 (stereo not shown) [Compound 99]
Horseweed plant response rating (0-100) [1, 28]: 0 | Horseweed plant response rating (0 to 100 scale) [1, 29]: 0 | Soybean plant response rating (0-100) (soybean (Glycine max) [2]; [28]): 20 | Soybean plant response rating (0 to 100 scale) (soybean (Glycine max) [2]; [29]): 0 | Galium plant response rating (0-100) [3, 28]: 20 | Galium plant response rating (0 to 100 scale) [3, 29]: 20 | Kochia plant response rating (0-100) (kochia (Bassia scoparia) [4]; [28]): 0 | Kochia plant response rating (0 to 100 scale) (kochia (Bassia scoparia) [4]; [29]): 0 | Barnyardgrass plant response rating (0-100) [5, 28]: 0 | Barnyardgrass plant response rating (0 to 100 scale) [5, 29]: 0 | Blackgrass plant response rating (0-100) [6, 28]: 0 | Blackgrass plant response rating (0 to 100 scale) [6, 29]: 0 | Ragweed plant response rating (0-100) [7, 28]: 0 | Ragweed plant response rating (0 to 100 scale) [7, 29]: 0 | Wheat plant response rating (0-100) [8, 28]: 10 | Wheat plant response rating (0 to 100 scale) [8, 29]: 0 | Ryegrass, Italian plant response rating (0-100) [9, 28]: 0 | Ryegrass, Italian plant response rating (0 to 100 scale) [9, 29]: 0 | Corn plant response rating (0-100) (corn (Zea mays) [10]; [28]): 0 | Corn plant response rating (0 to 100 scale) (corn (Zea mays) [10]; [29]): 0 | Oat, Wild plant response rating (0-100) [11, 28]: 0 | Oat, Wild plant response rating (0 to 100 scale) [11, 29]: 0 | Pigweed, Palmer plant response rating (0-100) [12, 28]: 0 | Pigweed, Palmer plant response rating (0 to 100 scale) [12, 29]: 0 | Foxtail, Green plant response rating (0-100) [13, 28]: 0 | Foxtail, Green plant response rating (0 to 100 scale) [13, 29]: 0 | Soybean plant response rating (soybean (Glycine max) [14]; 16 g ai/ha, 0 to 100 scale): 0 | Soybean plant response rating (0-100) (soybean (Glycine max) [14]; [30]): 0 | Kochia plant response rating (kochia (Bassia scoparia) [15]; 16 g ai/ha, 0 to 100 scale): 0 | Kochia plant response rating (0-100) (kochia (Bassia scoparia) [15]; [30]): 0 | Barnyardgrass plant response rating ([16]; 16 g ai/ha, 0 to 100 scale): 0 | Barnyardgrass plant response rating (0-100) [16, 30]: 0 | Blackgrass plant response rating ([17]; 16 g ai/ha, 0 to 100 scale): 0 | Blackgrass plant response rating (0-100) [17, 30]: 0 | Ragweed plant response rating ([18]; 16 g ai/ha, 0 to 100 scale): 0 | Ragweed plant response rating (0-100) [18, 30]: 0 | Wheat plant response rating ([19]; 16 g ai/ha, 0 to 100 scale): 0 | Wheat plant response rating (0-100) [19, 30]: 0 | Ryegrass, Italian plant response rating ([20]; 16 g ai/ha, 0 to 100 scale): 0 | Ryegrass, Italian plant response rating (0-100) [20, 30]: 0 | Corn plant response rating (corn (Zea mays) [21]; 16 g ai/ha, 0 to 100 scale): 0 | Corn plant response rating (0-100) (corn (Zea mays) [21]; [30]): 0 | Oat, Wild plant response rating ([22]; 16 g ai/ha, 0 to 100 scale): 20 | Oat, Wild plant response rating (0-100) [22, 30]: 50 | Pigweed, Palmer plant response rating ([23]; 16 g ai/ha, 0 to 100 scale): 0 | Pigweed, Palmer plant response rating (0-100) [23, 30]: 0 | Foxtail, Green plant response rating ([24]; 16 g ai/ha, 0 to 100 scale): 0 | Foxtail, Green plant response rating (0-100) [24, 30]: 40 | Plant response rating, Barnyardgrass (0 to 100 scale, 0 is no effect and 100 is complete control) [25]: 0 | Plant response rating, Rice (0 to 100 scale, 0 is no effect and 100 is complete control) (rice (Oryza sativa)): 0 | Plant response rating, Ducksalad (0 to 100 scale, 0 is no effect and 100 is complete control) [26]: 0 | Plant response rating, Sedge, Umbrella (0 to 100 scale, 0 is no effect and 100 is complete control) [27]: 0
